From patent US12194036B2 (priority 2022, dated 2025)

Tests used:
[1] = Pharmacokinetics after administration of the subject combination; details: for AUC0-12 relative to that of bupropion / Cmax relative to peak level of bupropion: metabolite vs bupropion, after the subject combination
[2] = Food effect on pharmacokinetics of the subject combination; details: subject combination administered with food
[3] = Effect of CYP2D6 poor metabolizer status on pharmacokinetics of the tablet (Group 3); details: compared to patients who are not CYP2D6 poor metabolizers
plasma protein = assay: Plasma protein binding; assay type: in vitro ADME; details: metabolite vs bupropion

SMILES: CC(NC(C)(C)C)C(=O)c1cccc(Cl)c1 (racemic) [bupropion]
- mean elimination half-life ([1]; human, plasma, oral): 15 h

SMILES: COc1ccc2c(c1)[C@]13CCCC[C@@H]1[C@H](C2)N(C)CC3 [dextromethorphan]
- increase of mean elimination half-life ([1]; 8 days of subject combination in extensive metabolizers, compared to dextromethorphan given without bupropion): approximately 3 fold
- pharmacokinetics at steady state (linearity) ([1]; co-administered with bupropion): nonlinear pharmacokinetics
- changes in AUC and Cmax at steady state with dose ([1]; varying doses of bupropion (75 to 150 mg), co-administered with bupropion): less than dose-proportional changes
- changes in AUC and Cmax at steady state with dose ([1]; varying doses of dextromethorphan (30 to 60 mg), co-administered with bupropion): greater than dose-proportional changes
- AUC0-12 decrease with food [2]: 14%
- plasma concentrations in CYP2D6 poor metabolizers [3]: increases plasma concentrations

SMILES: CC(NC(C)(C)C)C(O)c1cccc(Cl)c1 (centres unmarked) [erythrohydroxybupropion]
- AUC0-12 relative to that of bupropion [1]: about 1.2 times
- Cmax relative to peak level of bupropion [1]: approximately equal to

SMILES: C[C@H]1NC(C)(C)CO[C@]1(O)c1cccc(Cl)c1 [hydroxybupropion]
- AUC0-12 relative to that of bupropion [1]: about 19 times
- Cmax relative to peak level of bupropion [1]: approximately 14 times

SMILES: C[C@H](NC(C)(C)C)[C@@H](O)c1cccc(Cl)c1 [threohydroxybupropion]
- AUC0-12 relative to that of bupropion [1]: about 7 times
- Cmax relative to peak level of bupropion [1]: about 5 times
- extent of protein binding compared with bupropion (plasma protein): about half that seen with bupropion
